Bridge positions count the residues as written; N and C are the ends. Peptide text beside a SMILES is read from it.
How the values were obtained:
[1] = test system: bovine adrenal chromaffin cells; assay type: cell-based
[2] = target: endoproteinase Glu-C (Endo Glu-C) (Staphylococcus aureus, UniProt P0C1U8); settings: pH 8
in vitro = settings: human, plasma

Sequence of endoproteinase Glu-C (Endo Glu-C) (P0C1U8 69-336 limits assumed): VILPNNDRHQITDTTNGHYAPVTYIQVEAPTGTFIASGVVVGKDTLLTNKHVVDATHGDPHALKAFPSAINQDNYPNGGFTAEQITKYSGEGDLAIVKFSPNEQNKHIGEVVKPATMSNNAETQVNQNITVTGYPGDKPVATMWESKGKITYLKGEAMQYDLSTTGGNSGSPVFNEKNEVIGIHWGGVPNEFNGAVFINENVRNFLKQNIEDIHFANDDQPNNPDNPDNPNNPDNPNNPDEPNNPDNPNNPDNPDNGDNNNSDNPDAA

| SMILES | inhibition of nicotine-evoked catecholamine release, activity relative to linear MII [1] | intact peptide remaining on incubation with Endo-GluC [2] | stability in human plasma relative to MII | remaining at 24 h (in vitro) |
| --- | --- | --- | --- | --- |
| CC(C)C[C@@H]1NC(=O)[C@H](CC(N)=O)NC(=O)[C@H](CO)NC(=O)[C@H](Cc2c[nH]cn2)NC(=O)[C@H](CCC(=O)O)NC(=O)[C@H](CC(C)C)NC(=O)[C@H](Cc2c[nH]cn2)NC(=O)[C@@H]2CSSC[C@@H]3NC(=O)CNC(=O)CNC(=O)[C@H](C)NC(=O)[C@H](C)NC(=O)CNC(=O)[C@H](C)NC(=O)CNC(=O)CNC(=O)[C@H](CSSC[C@H](NC3=O)C(=O)N[C@@H](CO)C(=O)N[C@@H](CC(N)=O)C(=O)N3CCC[C@H]3C(=O)N[C@@H](C(C)C)C(=O)N2)NC1=O [cMII-7] (cyclo(AAGGCCSNPVCHLEHSNLCGGAG); disulfide 5-11, 6-19) | comparable to linear MII | remain entirely intact | dramatically greater than MII | ~90% |
| CC(C)C[C@@H]1NC(=O)[C@H](CC(N)=O)NC(=O)[C@H](CO)NC(=O)[C@H](Cc2c[nH]cn2)NC(=O)[C@H](CCC(=O)O)NC(=O)[C@H](CC(C)C)NC(=O)[C@H](Cc2c[nH]cn2)NC(=O)[C@@H]2CSSC[C@@H]3NC(=O)CNC(=O)CNC(=O)CNC(=O)[C@H](C)NC(=O)[C@H](C)NC(=O)CNC(=O)CNC(=O)[C@H](CSSC[C@H](NC3=O)C(=O)N[C@@H](CO)C(=O)N[C@@H](CC(N)=O)C(=O)N3CCC[C@H]3C(=O)N[C@@H](C(C)C)C(=O)N2)NC1=O [cMII-6] (cyclo(AAGGGCCSNPVCHLEHSNLCGG); disulfide 6-12, 7-20) | comparable to linear MII | remain entirely intact | dramatically greater than MII | ~90% |

Reference: patent US8354372B2 (priority 2006, dated 2013)
